Data reported in ChEMBL document CHEMBL4715763, “A simple, one pot synthesis of furo[3,2-c]chromenes and evaluation of antimicrobial activity” (2016).
Converted amounts (≈) assume the structure as drawn. The source made the active and inactive calls. No cut-off for these calls is given here.

Tests used:
Assay type in all cases: functional
Pseudomonas aeruginosa = experiment: Antimicrobial activity against Pseudomonas aeruginosa MTCC 2453 assessed as inhibition zone measured after 24 hrs incubation by well diffusion method
Raoultella planticola [1] = experiment: Antimicrobial activity against Klebsiella planticola MTCC 530 assessed as inhibition zone measured after 24 hrs incubation by well diffusion method
Escherichia coli [2] = experiment: Antimicrobial activity against Escherichia coli MTCC 739 assessed as inhibition zone measured after 24 hrs incubation by well diffusion method
Staphylococcus aureus [3] = experiment: Antimicrobial activity against Staphylococcus aureus MTCC 96 assessed as inhibition zone measured after 24 hrs incubation by well diffusion method
Micrococcus luteus [4] = experiment: Antimicrobial activity against Micrococcus luteus MTCC 2470 assessed as inhibition zone measured after 24 hrs incubation by well diffusion method
Candida albicans = experiment: Antimicrobial activity against Candida albicans MTCC 3017 assessed as inhibition zone measured after 24 hrs incubation by well diffusion method
Staphylococcus aureus [5] = experiment: Antimicrobial activity against Staphylococcus aureus MLS-16 MTCC 2940 assessed as inhibition zone measured after 24 hrs incubation by well diffusion method
Bacillus subtilis [6] = experiment: Antimicrobial activity against Bacillus subtilis MTCC 121 assessed as inhibition zone measured after 24 hrs incubation by well diffusion method
Raoultella planticola [7] = experiment: Bactericidal activity against Klebsiella planticola MTCC 530 assessed as bacterial killing after 24 hrs incubation by NCCLS protocol-based broth microdilution method
Micrococcus luteus [8] = experiment: Bactericidal activity against Micrococcus luteus MTCC 2470 assessed as bacterial killing after 24 hrs incubation by NCCLS protocol-based broth microdilution method
Bacillus subtilis [9] = experiment: Bactericidal activity against Bacillus subtilis MTCC 121 assessed as bacterial killing after 24 hrs incubation by NCCLS protocol-based broth microdilution method
Escherichia coli [10] = experiment: Bactericidal activity against Escherichia coli MTCC 739 assessed as bacterial killing after 24 hrs incubation by NCCLS protocol-based broth microdilution method

| Structure (SMILES) | MIC (Pseudomonas aeruginosa) | MIC (Raoultella planticola [1]) | MIC (Escherichia coli [2]) | MIC (Staphylococcus aureus [3]) | MIC (Micrococcus luteus [4]) | MIC (Candida albicans) | MIC (Staphylococcus aureus [5]) | MIC (Bacillus subtilis [6]) | MBC (Raoultella planticola [7]) | MBC (Micrococcus luteus [8]) | MBC (Bacillus subtilis [9]) | MBC (Escherichia coli [10]) |
| --- | --- | --- | --- | --- | --- | --- | --- | --- | --- | --- | --- | --- |
| COC(=O)C1(C#N)Oc2c(c(=O)oc3ccccc23)C1c1ccc(Cl)cc1Cl (stereo unspecified) | > 250 µg/mL | > 250 µg/mL | > 250 µg/mL | > 250 µg/mL | > 250 µg/mL | > 250 µg/mL | > 250 µg/mL | > 250 µg/mL | – | – | – | – |
| COC(=O)C1(C#N)Oc2c(c(=O)oc3ccccc23)C1c1ccc(C)cc1 (stereo unspecified) | > 250 µg/mL | > 250 µg/mL | > 250 µg/mL | > 250 µg/mL | 125 µg/mL (≈ 346 µM) | > 250 µg/mL | > 250 µg/mL | > 250 µg/mL | – | – | – | – |
| Clc1ccc(COC(Cn2ccnc2)c2ccc(Cl)cc2Cl)c(Cl)c1 (stereo unspecified) [MICONAZOLE] | inactive | inactive | inactive | inactive | inactive | 7.8 µg/mL (≈ 18.7 µM) | inactive | inactive | – | – | – | – |
| COC(=O)C1(C#N)Oc2c(c(=O)oc3ccccc23)C1c1ccccc1 (stereo unspecified) | > 250 µg/mL | > 250 µg/mL | > 250 µg/mL | > 250 µg/mL | > 250 µg/mL | > 250 µg/mL | > 250 µg/mL | 62.5 µg/mL (≈ 180 µM) | – | – | – | – |
| CC(C)OC(=O)C1(C#N)Oc2c(c(=O)oc3ccccc23)C1c1ccccc1 (stereo unspecified) | > 250 µg/mL | 15.6 µg/mL (≈ 41.6 µM) | > 250 µg/mL | 125 µg/mL (≈ 333 µM) | 15.6 µg/mL (≈ 41.6 µM) | > 250 µg/mL | 125 µg/mL (≈ 333 µM) | 250 µg/mL (≈ 666 µM) | 62.5 µg/mL (≈ 166 µM) | 62.5 µg/mL (≈ 166 µM) | inactive | inactive |
| COC(=O)C1(C#N)Oc2c(c(=O)oc3ccccc23)C1c1ccc(Br)cc1 (stereo unspecified) | > 250 µg/mL | > 250 µg/mL | 12.5 µg/mL (≈ 29.3 µM) | > 250 µg/mL | > 250 µg/mL | > 250 µg/mL | > 250 µg/mL | > 250 µg/mL | – | – | – | – |
| COC(=O)C1(C#N)Oc2c(c(=O)oc3ccccc23)C1c1ccc(O)cc1 (stereo unspecified) | > 250 µg/mL | > 250 µg/mL | > 250 µg/mL | > 250 µg/mL | > 250 µg/mL | > 250 µg/mL | > 250 µg/mL | > 250 µg/mL | – | – | – | – |
| COC(=O)C1(C#N)Oc2c(c(=O)oc3ccccc23)C1c1ccc([N+](=O)[O-])cc1 (stereo unspecified) | > 250 µg/mL | > 250 µg/mL | > 250 µg/mL | > 250 µg/mL | > 250 µg/mL | > 250 µg/mL | > 250 µg/mL | > 250 µg/mL | – | – | – | – |
| CCOC(=O)C1(C#N)Oc2c(c(=O)oc3ccccc23)C1c1ccccc1 (stereo unspecified) | > 250 µg/mL | > 250 µg/mL | > 250 µg/mL | > 250 µg/mL | > 250 µg/mL | > 250 µg/mL | > 250 µg/mL | > 250 µg/mL | – | – | – | – |
| O=C(O)c1cn(C2CC2)c2cc(N3CCNCC3)c(F)cc2c1=O [CIPROFLOXACIN] | 0.9 µg/mL (≈ 2.72 µM) | 0.9 µg/mL (≈ 2.72 µM) | 0.9 µg/mL (≈ 2.72 µM) | 0.9 µg/mL (≈ 2.72 µM) | 0.9 µg/mL (≈ 2.72 µM) | – | 0.9 µg/mL (≈ 2.72 µM) | 0.9 µg/mL (≈ 2.72 µM) | 1.17 µg/mL (≈ 3.53 µM) | 1.17 µg/mL (≈ 3.53 µM) | 1.17 µg/mL (≈ 3.53 µM) | 1.17 µg/mL (≈ 3.53 µM) |
| CCOC(=O)C1(C#N)Oc2c(c(=O)oc3ccc(C)cc23)C1c1ccccc1 (stereo unspecified) | > 250 µg/mL | 250 µg/mL (≈ 666 µM) | > 250 µg/mL | > 250 µg/mL | > 250 µg/mL | > 250 µg/mL | > 250 µg/mL | > 250 µg/mL | – | – | – | – |
| COC(=O)C1(C#N)Oc2c(c(=O)oc3ccccc23)C1c1cc(OC)c(OC)c(OC)c1 (stereo unspecified) | > 250 µg/mL | > 250 µg/mL | > 250 µg/mL | 62.5 µg/mL (≈ 143 µM) | > 250 µg/mL | > 250 µg/mL | > 250 µg/mL | > 250 µg/mL | – | – | – | – |
| CCOC(=O)C1(C#N)Oc2c(c(=O)oc3ccccc23)C1c1cccc2ccccc12 (stereo unspecified) | > 250 µg/mL | > 250 µg/mL | > 250 µg/mL | > 250 µg/mL | > 250 µg/mL | > 250 µg/mL | > 250 µg/mL | > 250 µg/mL | – | – | – | – |
| COC(=O)C1(C#N)Oc2c(c(=O)oc3ccccc23)C1c1ccc(F)cc1 (stereo unspecified) | > 250 µg/mL | 7.8 µg/mL (≈ 21.4 µM) | 15.6 µg/mL (≈ 42.7 µM) | 62.5 µg/mL (≈ 171 µM) | 7.8 µg/mL (≈ 21.4 µM) | 62.5 µg/mL (≈ 171 µM) | 62.5 µg/mL (≈ 171 µM) | 7.8 µg/mL (≈ 21.4 µM) | 62.5 µg/mL (≈ 171 µM) | 62.5 µg/mL (≈ 171 µM) | 62.5 µg/mL (≈ 171 µM) | 62.5 µg/mL (≈ 171 µM) |
| CCOC(=O)C1(C#N)Oc2c(c(=O)oc3ccccc23)C1c1ccc([N+](=O)[O-])cc1 (stereo unspecified) | > 250 µg/mL | > 250 µg/mL | > 250 µg/mL | > 250 µg/mL | > 250 µg/mL | > 250 µg/mL | > 250 µg/mL | > 250 µg/mL | – | – | – | – |
| COC(=O)C1(C#N)Oc2c(c(=O)oc3ccccc23)C1c1ccc(C#N)cc1 (stereo unspecified) | > 250 µg/mL | > 250 µg/mL | > 250 µg/mL | > 250 µg/mL | > 250 µg/mL | > 250 µg/mL | > 250 µg/mL | > 250 µg/mL | – | – | – | – |
| COC(=O)C1(C#N)Oc2c(c(=O)oc3ccccc23)C1c1ccc(Cl)cc1 (stereo unspecified) | > 250 µg/mL | > 250 µg/mL | 62.5 µg/mL (≈ 164 µM) | > 250 µg/mL | > 250 µg/mL | > 250 µg/mL | > 250 µg/mL | > 250 µg/mL | – | – | – | – |
| CCOC(=O)C1(C#N)Oc2c(c(=O)oc3ccccc23)C1c1ccc(C(F)(F)F)cc1 (stereo unspecified) | > 250 µg/mL | 250 µg/mL (≈ 582 µM) | > 250 µg/mL | > 250 µg/mL | > 250 µg/mL | > 250 µg/mL | > 250 µg/mL | 250 µg/mL (≈ 582 µM) | – | – | – | – |
| COC(=O)C1(C#N)Oc2c(c(=O)oc3ccccc23)C1c1ccc(C(F)(F)F)cc1 (stereo unspecified) | > 250 µg/mL | > 250 µg/mL | > 250 µg/mL | > 250 µg/mL | > 250 µg/mL | > 250 µg/mL | > 250 µg/mL | > 250 µg/mL | – | – | – | – |
| COC(=O)C1(C#N)Oc2c(c(=O)oc3ccc(C)cc23)C1c1ccccc1 (stereo unspecified) | > 250 µg/mL | > 250 µg/mL | > 250 µg/mL | > 250 µg/mL | > 250 µg/mL | > 250 µg/mL | > 250 µg/mL | > 250 µg/mL | – | – | – | – |
